Converted amounts (≈) assume the structure as drawn.

Type in all cases: cell-based
The subject of one data set is HeLa. Briefly: Cytotoxicity on HeLa cells. The settings on record: HeLa human epithelial cervical cancer. As for the experimental part: The major metabolite (1) was isolated from a 5 L culture and purified by sequential open column chromatography and RP-HPLC (FIG. 1), yielding 1.04 mg of a pale yellow compound. […] According to HR-MS measurements, 1 has a molecular formula of C29H38N6O2S6 and appeared to be amazingly rich in sulfur atoms. Furthermore, NMR data disclosed that the molecule is symmetrical: The ^13C NMR and DEPT spectra indicated the presence of six methylene, two methine, and five quaternary carbons. In the ^1H NMR spectrum signals corresponding to two olefinic and six methylene protons were observed (see Table 1).
(§1) For the detailed evaluation of its biological profile as anti-cancer agent, cultured human tumor cell lines were treated with the closthioamide 1. In particular, closthioamide 1 was tested for its inhibitory effect on cell growth of different human cell lines.

In data set [1] the test system is Staphylococcus aureus MRSA. Briefly: Standardized antimicrobial assay (agar diffusion test). From the text: (§2) FIG. 4. A Activity of synthetic closthioamide (1) using 4 bacterial test strains; from left to right: (1) E. coli, (2) Mycobacterium vaccae, (3) methicillin-resistant Staphylococcus aureus (MRSA), (4) vancomycin-resistant Enterococcus faecalis (VRE). B Ciprofloxacin control.
(§3) For the detailed evaluation of their antimicrobial (antibacterial, antifungal) activity, dosthioamides according to the invention were subjected to standardized antimicrobial assays (Herold et al., Chem. Eur. J., 2005), e.g. agar diffusion test. In particular, closthioamide 1 was tested for its inhibitory effect on cell growth of different bacterial strains and/or fungi. The tested microbes included Bacillus subtilis, Staphylococcus aureus, E. coli, Pseudomonas aeruginosa, Staphylococcus aureus MRSA, Enterococcus faecalis VRE, Mycobacterium vaccae, Sporobolomyces salmonicolor, Candida albicans, and Penicillium notatum.
Background: In agar diffusion tests the substance spreads into inoculated agar from a disc or well.

Data set [2] concerns Enterococcus faecalis VRE. The description is as above. The settings on record: for antibacterial activity: vancomycin-resistant Enterococcus faecalis.
Excerpt: as §2, §3

Data set [3] relates to E. coli, Mycobacterium vaccae, MRSA, VRE. Description: Activity of synthetic closthioamide using 4 bacterial test strains (FIG. 4A).
Excerpt: as §2

In a further data set the test system is K-562. Description: Antiproliferative activity on K-562 cells. The settings on record: K562; K-562 human erythromyeloblastoid leukemia cells. As for the experimental part: as §1
Another data set has as its system Pseudomonas aeruginosa. Briefly: Standardized antimicrobial assay (agar diffusion test). As for the experimental part:
as §3

The test system of another data set is Staphylococcus aureus. The description is as above. The method, then: as §3
In a further data set the test system is Bacillus subtilis. The data set is described as above. As for the experimental part:
as §3

For the next data set, the system named is Penicillium notatum. The data set is described as above. The method, then:
as §3

For another data set, the system named is Mycobacterium vaccae. The data set is described as above. As for the experimental part:
as §3

The subject of data set [4] is Sporobolomyces salmonicolor. The description is as above. As for the experimental part:
as §3

The subject of another data set is Candida albicans. The description is as above. As for the experimental part: as §3
A further data set concerns E. coli. Described as above. The method, then: as §3
The nature of data set [5]: Cytotoxicity (data not shown).
The subject of a further data set is HUVEC. Description: Antiproliferative activity on HUVEC cells. Particulars: HUVEC human umbilical vein endothelial cells. As for the experimental part:
as §1

As to `Oc1ccc(C(=S)NCCC(=S)NCCC(=S)NCCCNC(=S)CCNC(=S)CCNC(=S)c2ccc(O)cc2)cc1` [closthioamide 1, closthioamide], in the data set on HeLa, half-maximal cytotoxicity (CC50) was put at 5.1 µg/mL (≈ 7.34 µM). The antibacterial activity result in data set [1] (FIG. 4, synthetic closthioamide, methicillin-resistant Staphylococcus aureus) is “highly active”; in data set [1] (preliminary bioactivity profiling, isolated metabolite, methicillin-resistant Staphylococcus aureus (MRSA)) it was “antibacterial activity”; in [2] (FIG. 4, synthetic closthioamide), “highly active”; in data set [2] (preliminary bioactivity profiling, isolated metabolite), “antibacterial activity”. The antimicrobial activity result (in data set [1] (Staphylococcus aureus MRSA); in data set [2] (Enterococcus faecalis VRE); with Pseudomonas aeruginosa; with Staphylococcus aureus; in the data set on Bacillus subtilis; in the data set with Penicillium notatum) was “showed activity” throughout. The antimicrobial activity entry (in the data set on Mycobacterium vaccae; in data set [4]; in the data set with Candida albicans; in the data set with E. coli) was “showed activity” each time. The “activity of synthetic compound compared with the bacterial metabolite” value in [3] is reported as “equivalent to the activity of the bacterial metabolite”. Also, the GI50 (commonly the concentration that inhibits growth by half) with K-562 turned out to be 1.5 µg/mL (≈ 2.16 µM); in the data set on HUVEC it was 6.4 µg/mL (≈ 9.21 µM). Besides, the cytotoxicity entry in [5] is reported as “only moderate cytotoxicity”.

Source of the values: US8673980B2, “Closthioamides, compositions, and methods for treating bacterial or fungal infections or cancer” (Leibniz-Institut fuer Naturstoff-Forschung und …, priority 2009, dated 2014).
